One data set has as its system myofibroblast formation. The following applies: animal studies of capsular contracture with breast implants; cited from earlier work.
In the next data set the test system is fibrinolysis. Nature of the data set: tranexamic acid concentrations effective against fibrinolysis. The note with it: relative to doses used in the non-GLP acute porcine study.
The conditions of data set [1]: given preoperatively.

For the compound `O=S(=O)([O-])CCS.[Na+]` [MESNA, sodium 2-mercaptoethane sulfonate], the myofibroblast formation entry with myofibroblast formation is reported as “diminish myofibroblast formation”.

Regarding `NC[C@H]1CC[C@H](C(=O)O)CC1` [tranexamic acid], the “dose effective in reversing fibrinolysis” value in the data set on fibrinolysis is reported as “one tenth of the doses used in the non-GLP acute porcine study”. Further, in data set [1], the “time to reach plasma concentrations” value was in the range of 5 to 15 min.

Values taken from patent US11191878B2, “Kits for local delivery of water soluble agents and methods of use” (priority 2017, dated 2021).
